Tests used:
Conditions in all cases: treatment: drug alone; 5 days
[1] = tested on: CAKI-1; assay: minimum viability across doses, drug alone, relative to DMSO (fraction); higher = less growth inhibition
Procedure: (§1)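 Primary HTS: 8 RCC cell lines treated with 8 doses (up to 10 uM) of each library drug alone for 5 days; viability read by CellTiter-Glo and normalised to DMSO. GI50 was fitted with XLfit (4-parameter), AUC is the area under the dose-response curve, and minimum viability is the lowest fraction of DMSO viability across doses.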

[2] = tested on: A498; assay: as above
Procedure: as §1

[3] = tested on: SN12C; assay: as above
Procedure: as §1

[4] = tested on: 786-O; assay: as above
Procedure: as §1

[5] = tested on: ACHN; assay: as above
Procedure: as §1

[6] = tested on: UO-31; assay: as above
Procedure: as §1

[7] = tested on: TK-10; assay: as above
Procedure: as §1

[8] = tested on: 769-P; assay: as above
Procedure: as §1

[9] = tested on: CAKI-1; assay: AUC of dose-response viability curve, drug alone (arbitrary (AUC of normalised viability)); higher = less growth inhibition
Procedure: as §1

[10] = tested on: A498; assay: as above
Procedure: as §1

[11] = tested on: SN12C; assay: as above
Procedure: as §1

[12] = tested on: 786-O; assay: as above
Procedure: as §1

[13] = tested on: ACHN; assay: as above
Procedure: as §1

[14] = tested on: UO-31; assay: as above
Procedure: as §1

[15] = tested on: TK-10; assay: as above
Procedure: as §1

[16] = tested on: 769-P; assay: as above
Procedure: as §1

[17] = tested on: CAKI-1; assay: GI50, drug alone; higher = less potent
Procedure: as §1

[18] = tested on: A498; assay: GI50, drug alone; higher = less potent
Procedure: as §1

[19] = tested on: SN12C; assay: GI50, drug alone; higher = less potent
Procedure: as §1

[20] = tested on: 786-O; assay: GI50, drug alone; higher = less potent
Procedure: as §1

[21] = tested on: ACHN; assay: GI50, drug alone; higher = less potent
Procedure: as §1

[22] = tested on: UO-31; assay: GI50, drug alone; higher = less potent
Procedure: as §1

[23] = tested on: TK-10; assay: GI50, drug alone; higher = less potent
Procedure: as §1

[24] = tested on: 769-P; assay: GI50, drug alone; higher = less potent
Procedure: as §1

Compound	GI50, drug alone [20]	GI50, drug alone [21]	minimum viability across doses [1]	minimum viability across doses [2]	minimum viability across doses [3]	minimum viability across doses [4]	minimum viability across doses [5]	minimum viability across doses [6]	minimum viability across doses [7]	minimum viability across doses [8]	AUC of dose-response viability curve [9]	AUC of dose-response viability curve [10]	AUC of dose-response viability curve [11]	AUC of dose-response viability curve [12]	AUC of dose-response viability curve [13]	AUC of dose-response viability curve [14]	AUC of dose-response viability curve [15]	AUC of dose-response viability curve [16]	GI50, drug alone [17]	GI50, drug alone [18]	GI50, drug alone [19]	GI50, drug alone [22]	GI50, drug alone [23]	GI50, drug alone [24]
Cc1cc2c(C(C)C)c(O)c(O)c(C=O)c2c(O)c1-c1c(C)cc2c(C(C)C)c(O)c(O)c(C=O)c2c1O [AT101]	> 10 µM	5.95 µM	0.121	0.836	0.741	0.212	0.2	0.778	0.542	0.779	3.35	3.74	3.2	1.66	3.02	3.8	2.36	3.66	6.05 µM	> 10 µM	> 10 µM	> 10 µM	> 10 µM	> 10 µM
COc1cc2nccc(Oc3ccc(NC(=O)Nc4ccc(F)cc4F)c(F)c3)c2cc1OC [Ki8751]	> 10 µM	> 10 µM	0.403	1	0.877	0.673	0.574	0.00557	0.72	0.559	3.34	5.49	3.45	3.06	3.13	2.83	3.08	3.31	7.43 µM	> 10 µM	> 10 µM	0.445 µM	> 10 µM	> 10 µM
CC1(C)CNc2cc(NC(=O)c3cccnc3NCc3ccncc3)ccc21.O=P(O)(O)O.O=P(O)(O)O [Motesanib Diphosphate]	> 10 µM	> 10 µM	0.756	0.86	0.832	0.777	0.818	0.976	0.757	0.943	3.36	3.77	3.19	3.26	3.4	4.68	3.09	3.53	> 10 µM	> 10 µM	> 10 µM	> 10 µM	> 10 µM	> 10 µM
O=c1cc(N2CCOCC2)oc2c(-c3ccccc3)cccc12	> 10 µM	> 10 µM	0.642	0.929	0.765	0.559	0.723	0.858	0.684	0.617	3.37	3.75	3.36	2.62	2.91	3.98	2.97	3.1	> 10 µM	> 10 µM	> 10 µM	> 10 µM	> 10 µM	> 10 µM
CNC(=O)c1cc(Oc2ccc(NC(=O)Nc3cc(C(C)(C)C)nn3-c3ccc4ncccc4c3)c(F)c2)ccn1 [DCC-2036 (Rebastinib)]	3.76 µM	1.79 µM	0.104	0.0163	0.0299	0.359	0.0439	0.00743	0.0459	0.752	2.63	3.2	2.95	2.8	2.92	4.08	2.94	3.43	1.25 µM	7.59 µM	2.92 µM	1.72 µM	2.14 µM	> 10 µM
CCN1CCN(Cc2ccc(-c3cc4c(N[C@H](C)c5ccccc5)ncnc4[nH]3)cc2)CC1 [AEE788 (NVP-AEE788)]	8.51 µM	0.415 µM	0.0495	0.898	0.276	0.108	0.0622	0.0104	0.0159	0.0865	2.81	3.87	2.77	3.45	2.1	3.98	2.13	2.61	3.19 µM	> 10 µM	4.79 µM	7.87 µM	0.581 µM	1.64 µM

More lines, main results first:

GI50, drug alone [20]	GI50, drug alone [21]	Compound	minimum viability across doses [1]	minimum viability across doses [2]	minimum viability across doses [3]	minimum viability across doses [4]	minimum viability across doses [5]	minimum viability across doses [6]	minimum viability across doses [7]	minimum viability across doses [8]	AUC of dose-response viability curve [9]	AUC of dose-response viability curve [10]	AUC of dose-response viability curve [11]	AUC of dose-response viability curve [12]	AUC of dose-response viability curve [13]	AUC of dose-response viability curve [14]	AUC of dose-response viability curve [15]	AUC of dose-response viability curve [16]	GI50, drug alone [17]	GI50, drug alone [18]	GI50, drug alone [19]	GI50, drug alone [22]	GI50, drug alone [23]	GI50, drug alone [24]
1.3 µM	0.348 µM	CC(C)n1nc(-c2cc3cc(O)ccc3[nH]2)c2c(N)ncnc21 [PP242]	0.0389	0.0519	0.0949	0.00205	0.05	0.00829	0.0788	0.0576	2.12	2.93	2.23	2.02	2.07	3.42	2.12	2.56	0.523 µM	2.91 µM	0.677 µM	4.1 µM	0.522 µM	1.55 µM
< 0.003 µM	5.26 µM	Cc1ccc(Nc2nccc(N(C)c3ccc4c(C)n(C)nc4c3)n2)cc1S(N)(=O)=O.Cl [Pazopanib HCl]	0.0579	0.514	0.193	0.427	0.224	0.63	0.661	0.207	3.09	3.57	3.1	2.85	3.21	4.39	3.14	3.18	6.83 µM	> 10 µM	5.96 µM	> 10 µM	> 10 µM	> 10 µM
> 10 µM	> 10 µM	CC[C@H](Nc1ncnc2[nH]cnc12)c1nc2cccc(F)c2c(=O)n1-c1ccccc1 [CAL-101 (GS-1101)]	0.633	0.979	0.777	0.613	0.64	0.926	0.701	0.786	3.06	4.09	3.2	3.15	3.17	3.87	3.12	3.45	> 10 µM	> 10 µM	> 10 µM	> 10 µM	> 10 µM	> 10 µM
